Marks after values point to notes of the source that are not given here.
Key:
[1] = tested on: combined bacterial test inoculum: Acinetobacter calcoaceticus, Escherichia coli, Pseudomonas aeruginosa, Enterobacter cloacae; experiment: Bacterial challenge test (ASTM D2574-97, modified) in standard water based interior paint; assay type: cell-based; set-up: key to Streak plate rank, 1st inoculation 24 h / Streak plate rank, 1st inoculation 72 h / Streak plate rank, 2nd inoculation 72 h / Streak plate rank, 3rd inoculation 24 h: 0 = no growth; 1 = 1-5 Colony Forming Unit (cfu); 2 = 6-15 cfu; 3 = 16-30 cfu; 4 = 31-45 cfu; 5 = greater than 45 cfu; 5c = Confluent Growth; conditions: for Dilution plate count, 3rd inoculation 72 h / Streak plate rank, 3rd inoculation 24 h: inoculum 2.50%; for Streak plate rank, 2nd inoculation 72 h: inoculum 5%; for Streak plate rank, 1st inoculation 24 h / Streak plate rank, 1st inoculation 72 h: inoculum 10%
Experimental: (§1) The following bacterial and fungal challenge tests were performed to ascertain whether low concentrations of 4-isothiazolin-3-one biocidal active compounds, pyrithione, coumarin or guanidine adjuvant are sufficient to prevent microbial contamination of final products when deliberately inoculated with spoilage microbes.
(§2) The tests were performed according to ASTM standard D2574-97 (Standard Test Method for Resistance of Emulsion Paints in the Container to Attack by Microorganisms, ASTM International, West Conshohocken, Pa.), with higher inoculation volumes and frequency. A standard water based interior paint was used as the test substrate. Sample sizes of 20 g test substrate were used and the test samples were prepared in a sterile 30 mL square Nalgene bottle.
The bacteria were grown on pH 5, 7, or 9 Trypticase Soy Agar (TSA) lawns. The bacteria were grown individually on TSA and harvested by using sterile buffered water. The bacterial lawns were washed off with 30 mL of sterile water and an equal volume of each individual cell suspension was withdrawn from each serum bottle to make a combined cell suspension. Combined bacterial suspension were about 10^7 cfu/mL, which provides about 10^6 cfu/mL in the sample.
(§3) The following microorganisms were used for inoculation of the tested samples:
(§4) For the bacterial challenge testing, each sample was inoculated with a combined bacterial test inoculum volume equivalent to 10% of the total initial sample volume for the initial inoculation, 5% of the total initial sample volume for the second inoculation and 2.5% of the total initial sample volume for the third inoculation. Inoculum volumes for the fungal challenge tests were 2%, 1% and 0.5% of the total initial sample volume, respectively. Samples were inoculated every 96 h.
(§5) Concentrations of biocidal active compounds and adjuvants refer to the final concentration in the test samples prior to the first inoculation.
(§6) The efficacy of the added agent in each sample was monitored by means of a streak plate test after 24 hours (all inoculations) and 72 hours of inoculation (first and second inoculation). At 72 hours of the third inoculation performed, a dilution plate count was performed in order to obtain a quantitative measurement of contamination (cfu/mL). A count of less than 10 colony forming units per mL ([…]) is considered to show no measurable contamination. For the streak plate tests, bacterial samples were streaked on Tryptic Soy Agar (TSA) and incubated for 48 hours at 30° C. before reading. Fungal samples were streaked on Potato Dextrose Agar (PDA) and incubated for 5 days at 25° C. before reading.
(§7) The streak plates were ranked from 0-5c according to the degree of microbial growth:
(§8) The challenge tests were performed as described above.

[2] = tested on: fungal test inoculum: Aspergillus niger, Penicillium funiculosum, Candida albicans; experiment: Fungal challenge test (ASTM D2574-97, modified) in standard water based interior paint; assay type: cell-based; set-up: key to Streak plate rank, 2nd inoculation 72 h / Streak plate rank, 1st inoculation 72 h / Streak plate rank, 1st inoculation 24 h / Streak plate rank, 2nd inoculation 24 h / Streak plate rank, 3rd inoculation 24 h: 0 = no growth; 1 = 1-5 Colony Forming Unit (cfu); 2 = 6-15 cfu; 3 = 16-30 cfu; 4 = 31-45 cfu; 5 = greater than 45 cfu; 5c = Confluent Growth; conditions: for Dilution plate count, 3rd inoculation 72 h / Streak plate rank, 3rd inoculation 24 h: inoculum 0.50%; for Streak plate rank, 2nd inoculation 72 h: inoculum 1%
Experimental: as §1, §2
Fungal lawns were grown on Potato Dextrose Agar (PDA) or Sabouraud Dextrose Agar (SAB). Individual fungal spore suspensions were harvested by adding 10 mL of sterile 0.05% Triton X to fungal lawns. The lawns were then gently agitated by rubbing a sterile swab on the lawn, being careful not to puncture the agar. The liquid was then aseptically transferred to a sterile bottle containing sterile glass beads. The top of the bottle was closed and the bottle shaken vigorously to break up any chunks in the suspension. The shaken spore suspension was decanted through sterile fibers into another sterile bottle. The decanted spore suspension was counted using a hemocytometer. Once the spore counts were determined, each suspension was diluted in order to obtain 10^6 spore/mL. Each diluted fungal suspension was poured into a sterile container.
as §3
as §4, with “Inoculum volumes for the fungal challenge tests were 2%, 1% and 0.5% of the total initial sample volume, respectively.” left out
as §5, §6, §7, §8

CCCCn1sc2ccccc2c1=O [BBIT, N-(n-butyl)-1,2-benzisothiazolin-3-one]
Dilution plate count, 3rd inoculation 72 h ([1]; 25 ppm): 8.3 × 10^6 cfu/mL | Streak plate rank, 3rd inoculation 24 h ([1]; 25 ppm): 5c | Streak plate rank, 2nd inoculation 72 h ([1]; 25 ppm): 5c | Streak plate rank, 1st inoculation 24 h ([1]; 25 ppm): 5c | Streak plate rank, 1st inoculation 72 h ([1]; 25 ppm): 5c | Dilution plate count, 3rd inoculation 72 h ([1]; 50 ppm): 6.0 × 10^6 cfu/mL | Streak plate rank, 3rd inoculation 24 h ([1]; 50 ppm): 5c | Streak plate rank, 2nd inoculation 72 h ([1]; 50 ppm): 5c | Streak plate rank, 1st inoculation 24 h ([1]; 50 ppm): 5c | Streak plate rank, 1st inoculation 72 h ([1]; 50 ppm): 5c | Dilution plate count, 3rd inoculation 72 h ([1]; 100 ppm): 5.6 × 10^6 cfu/mL | Streak plate rank, 3rd inoculation 24 h ([1]; 100 ppm): 5c | Streak plate rank, 2nd inoculation 72 h ([1]; 100 ppm): 5c | Streak plate rank, 1st inoculation 24 h ([1]; 100 ppm): 5c | Streak plate rank, 1st inoculation 72 h ([1]; 100 ppm): 5c | Dilution plate count, 3rd inoculation 72 h ([2]; 25 ppm): 1.0 × 10^1 cfu/mL | Streak plate rank, 3rd inoculation 24 h ([2]; 25 ppm): 2 (2 = 6-15 cfu) | Streak plate rank, 2nd inoculation 72 h ([2]; 25 ppm): 0 | Streak plate rank, 1st inoculation 24 h ([2]; 25 ppm, inoculum added was 5%): 4* (4 = 31-45 cfu) | Streak plate rank, 1st inoculation 72 h ([2]; 25 ppm, inoculum added was 5%): 1* (1 = 1-5 Colony Forming Unit (cfu)) | Dilution plate count, 3rd inoculation 72 h ([2]; 50 ppm): <10 cfu/mL | Streak plate rank, 3rd inoculation 24 h ([2]; 50 ppm): 1 (1 = 1-5 Colony Forming Unit (cfu)) | Streak plate rank, 2nd inoculation 72 h ([2]; 50 ppm): 0 | Streak plate rank, 1st inoculation 24 h ([2]; 50 ppm, inoculum added was 5%): 3* (3 = 16-30 cfu) | Streak plate rank, 1st inoculation 72 h ([2]; 50 ppm, inoculum added was 5%): 1* (1 = 1-5 Colony Forming Unit (cfu)) | Dilution plate count, 3rd inoculation 72 h ([2]; 100 ppm): <10 cfu/mL | Streak plate rank, 3rd inoculation 24 h ([2]; 100 ppm): 1 (1 = 1-5 Colony Forming Unit (cfu)) | Streak plate rank, 2nd inoculation 72 h ([2]; 100 ppm): 0 | Streak plate rank, 1st inoculation 24 h ([2]; 100 ppm, inoculum added was 5%): 4* (4 = 31-45 cfu) | Streak plate rank, 1st inoculation 72 h ([2]; 100 ppm, inoculum added was 5%): 1* (1 = 1-5 Colony Forming Unit (cfu))

O=c1ccc2ccccc2o1 [Coumarin]
Dilution plate count, 3rd inoculation 72 h ([1]; 500 ppm): 3.5 × 10^6 cfu/mL | Streak plate rank, 3rd inoculation 24 h ([1]; 500 ppm): 5c | Streak plate rank, 2nd inoculation 72 h ([1]; 500 ppm): 5c | Streak plate rank, 1st inoculation 24 h ([1]; 500 ppm): 5c | Streak plate rank, 1st inoculation 72 h ([1]; 500 ppm): 5c | bactericidal activity (in words) ([1]; used individually, Table 1): no bactericidal activity | Dilution plate count, 3rd inoculation 72 h ([2]; 500 ppm): 1.1 × 10^2 cfu/mL | Streak plate rank, 3rd inoculation 24 h ([2]; 500 ppm): 4 (4 = 31-45 cfu) | Streak plate rank, 2nd inoculation 72 h ([2]; 500 ppm): 2 (2 = 6-15 cfu) | Streak plate rank, 1st inoculation 24 h ([2]; 500 ppm, inoculum 2%): 3 (3 = 16-30 cfu) | Streak plate rank, 1st inoculation 72 h ([2]; 500 ppm, inoculum 2%): 3 (3 = 16-30 cfu)

CCCCCCN(CCCCCC)C(=N)N.I [N,N-dihexylguanidine HI]
effect of guanidine on bactericidal activity of 4-isothiazolin-3-ones (in words) ([1]; in combination with BIT and BBIT, Tables 3 and 5): not achieved | effect of guanidine on fungicidal activity of 4-isothiazolin-3-ones (in words) ([2]; in combination with BIT and BBIT, Tables 4 and 6): not achieved

Source: patent US20210235699A1, “Adjuvant Compositions Comprising a Tetramethylguanidine and a 4-Isothiazolin-3-One” (Lonza, LLC, priority 2018, published 2021)
